Test results published in article PMC5468338, “Novel Class IIa-Selective Histone Deacetylase Inhibitors Discovered Using an in Silico Virtual Screening Approach” (Scientific Reports, 2017).

Target: HDAC4 (Homo sapiens, UniProt P56524)
Experiment: HDAC fluorometric activity assay, HDAC4
Conditions: tested at 40 μM, SAHA as reference
Excerpt: A fluorogenic based assay[54] was used to validate the 40 candidate compounds.

Sequence of HDAC4 (P56524 whole entry): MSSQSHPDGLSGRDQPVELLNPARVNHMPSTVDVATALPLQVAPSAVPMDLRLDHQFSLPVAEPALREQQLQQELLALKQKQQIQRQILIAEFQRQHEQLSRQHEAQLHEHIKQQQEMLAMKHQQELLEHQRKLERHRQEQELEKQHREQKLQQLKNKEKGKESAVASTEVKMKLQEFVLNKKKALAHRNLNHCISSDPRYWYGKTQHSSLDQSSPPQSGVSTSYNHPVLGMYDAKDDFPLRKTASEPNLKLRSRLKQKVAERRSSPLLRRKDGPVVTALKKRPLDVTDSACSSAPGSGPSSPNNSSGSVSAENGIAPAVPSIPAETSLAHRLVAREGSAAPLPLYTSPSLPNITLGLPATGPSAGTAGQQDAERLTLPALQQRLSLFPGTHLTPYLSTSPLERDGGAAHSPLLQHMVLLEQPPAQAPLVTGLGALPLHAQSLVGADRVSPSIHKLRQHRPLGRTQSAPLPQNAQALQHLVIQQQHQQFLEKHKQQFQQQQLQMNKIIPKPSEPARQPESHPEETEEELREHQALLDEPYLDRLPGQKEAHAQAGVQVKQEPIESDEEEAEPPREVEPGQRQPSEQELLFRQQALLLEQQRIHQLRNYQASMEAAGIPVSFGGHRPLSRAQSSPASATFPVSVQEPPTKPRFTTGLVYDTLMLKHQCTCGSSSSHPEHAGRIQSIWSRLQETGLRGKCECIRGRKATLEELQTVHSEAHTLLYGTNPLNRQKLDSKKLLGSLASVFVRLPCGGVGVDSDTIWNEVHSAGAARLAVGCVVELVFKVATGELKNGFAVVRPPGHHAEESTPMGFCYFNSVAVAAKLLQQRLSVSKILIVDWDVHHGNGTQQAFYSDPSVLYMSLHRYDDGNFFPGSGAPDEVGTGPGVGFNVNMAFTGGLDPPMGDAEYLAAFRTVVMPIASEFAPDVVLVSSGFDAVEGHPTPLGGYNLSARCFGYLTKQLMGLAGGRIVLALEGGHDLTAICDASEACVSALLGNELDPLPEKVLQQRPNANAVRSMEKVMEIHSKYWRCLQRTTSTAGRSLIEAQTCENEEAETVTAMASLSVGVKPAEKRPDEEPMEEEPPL

## O=C(C=Cc1ccc(O)c(O)c1)c1ccc(O)c(O)c1O [Compound A93087]
  HDAC4 inhibitory activity in initial screen compared to SAHA: significantly higher inhibitory activities
